Reference: PMC4535450, “Two enzymes with redundant fructose bisphosphatase activity sustain gluconeogenesis and virulence in Mycobacterium tuberculosis” (Nature Communications, 2015)

Biological target: GLPX (Rv1099c) (Mycobacterium tuberculosis, UniProt P9WN21)
Assay type: biochemical

O=P(O)(O)OC[C@H]1OC(O)(COP(=O)(O)O)[C@@H](O)[C@@H]1O (stereo partly shown) [fructose 1,6-bisphosphate]
coupled spectrophotometric assay (phosphoglucoisomerase / G6P dehydrogenase, NAD): Expression of GLPX in ΔglpXΔgpm2 provided lithium-sensitive FBPase activity
